Measurements from ChEMBL document CHEMBL1201862, “PubChem BioAssay data set” (2004).
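Method: 48-hour compound exposure of cells in 96-well plates, five concentrations, linear interpolation of endpoints. GI50 = concentration required for 50% inhibition of growth.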 The source made the active and inactive calls. Cut-off read from the data, not from the text of the source: active = GI50 up to about 1.1 µM and inactive = higher.

Key:
Assay in all cases: NCI-60 cell line screen, 48 h
SNB-19 = system: SNB-19
HOP-92 = system: HOP-92
SK-OV-3 = system: SK-OV-3
K562 = system: K562
SF-295 = system: SF-295
HOP-62 = system: HOP-62
OVCAR-3 = system: OVCAR-3
U-251 = system: U-251
OVCAR-5 = system: OVCAR-5
HOP-18 = system: HOP-18
HCT-116 = system: HCT-116
RXF 393 = system: RXF 393
M14 = system: M14
DMS-273 = system: DMS-273
786-0 = system: 786-0
SNB-78 = system: SNB-78
SF-268 = system: SF-268
XF498 = system: XF498

Measured: GI50

COC(=O)C(/C(=N/NC(N)=O)C(=O)Nc1c(C)cccc1C(C)(C)C)c1nc2ccc(Cl)cc2nc1O (centres undefined)
inactive: SNB-19 > 100 µM | HOP-92 > 100 µM | SK-OV-3 > 100 µM | K562 > 100 µM | SF-295 > 100 µM | HOP-62 > 100 µM | OVCAR-3 > 100 µM | U-251 > 100 µM | OVCAR-5 > 100 µM | HOP-18 > 100 µM | HCT-116 > 100 µM | RXF 393 > 100 µM | M14 > 100 µM | DMS-273 > 100 µM | 786-0 > 100 µM | SNB-78 > 100 µM | SF-268 > 100 µM | XF498 > 100 µM

CC1OC(OCC2COC(O)(Oc3c(-c4ccc(O)c(O)c4)oc4cc(O)cc(O)c4c3=O)C(O)C2O)C(O)C(O)C1O (centres undefined)
inactive: SNB-19 > 100 µM | HOP-92 > 100 µM | SK-OV-3 > 100 µM | K562 > 100 µM | SF-295 > 100 µM | HOP-62 > 100 µM | OVCAR-3 > 100 µM | U-251 > 100 µM | OVCAR-5 > 100 µM | HOP-18 > 100 µM | HCT-116 > 100 µM | RXF 393 > 100 µM | M14 > 100 µM | DMS-273 > 100 µM | 786-0 > 100 µM | SNB-78 > 100 µM | SF-268 > 100 µM | XF498 > 100 µM

c1ccc(COc2ccc3[nH]c4c5c6ccccc6nc-5c[nH]c4c3c2)cc1
inactive: SNB-19 17.7 µM | HOP-92 15.8 µM | SK-OV-3 18.4 µM | K562 2.48 µM | SF-295 14.8 µM | HOP-62 15.8 µM | OVCAR-3 15.9 µM | U-251 11.7 µM | OVCAR-5 19.4 µM | HOP-18 13.2 µM | HCT-116 12.2 µM | RXF 393 11.2 µM | M14 13.7 µM | DMS-273 16.6 µM | 786-0 6.46 µM | SNB-78 20.9 µM | SF-268 17 µM | XF498 13.7 µM
